# Data from ChEMBL document CHEMBL1201862, “PubChem BioAssay data set” (2004).
# Activity calls are given as the source filed them.
# Key:
# [1] = target: T1, Ubiquitin-conjugating enzyme E2 N (Homo sapiens, UniProt P61088); assay type: functional;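 further: Dose-response confirmation in a TR-FRET assay detecting UBC13-driven polyubiquitin chain formation, inhibition measured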
# T1 sequence (P61088 whole entry): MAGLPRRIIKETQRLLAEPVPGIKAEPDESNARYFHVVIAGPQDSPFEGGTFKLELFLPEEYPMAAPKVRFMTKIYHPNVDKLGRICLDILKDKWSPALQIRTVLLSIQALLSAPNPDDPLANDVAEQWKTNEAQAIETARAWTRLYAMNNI
# cells [2] = assay type: functional, cell-based
# cells [3] = assay type: functional, cell-based; remark: listed apart in the source
# Estrogen receptor = target: T2, Estrogen receptor (Homo sapiens, UniProt P03372);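 further: potency for inhibiting coactivator peptide recruitment to the receptor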
# T2 sequence (P03372 whole entry): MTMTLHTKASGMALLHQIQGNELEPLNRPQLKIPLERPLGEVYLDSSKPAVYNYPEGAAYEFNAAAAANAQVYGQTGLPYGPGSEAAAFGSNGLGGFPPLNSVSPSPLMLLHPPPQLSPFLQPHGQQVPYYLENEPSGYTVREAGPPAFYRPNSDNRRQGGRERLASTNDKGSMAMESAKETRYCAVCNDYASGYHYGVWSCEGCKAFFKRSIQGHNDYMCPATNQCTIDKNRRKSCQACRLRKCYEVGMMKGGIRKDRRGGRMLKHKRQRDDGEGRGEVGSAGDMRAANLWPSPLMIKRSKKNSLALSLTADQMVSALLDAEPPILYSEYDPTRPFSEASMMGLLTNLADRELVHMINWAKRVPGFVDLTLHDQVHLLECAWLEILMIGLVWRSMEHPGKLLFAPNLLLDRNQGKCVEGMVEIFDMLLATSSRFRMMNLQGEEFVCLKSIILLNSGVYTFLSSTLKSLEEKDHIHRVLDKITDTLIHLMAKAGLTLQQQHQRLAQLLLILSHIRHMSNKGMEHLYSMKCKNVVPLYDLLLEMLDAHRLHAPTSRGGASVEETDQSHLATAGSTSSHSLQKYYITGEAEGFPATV
# [4] = target: T3, Heat shock factor protein 1 (Mus musculus, UniProt P38532); experiment: HSF1 potentiators in luciferase reporter cells, confirmation, cell-based, NIH3T3, luminescence, dose retest (AID 435004); assay type: functional;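 further: stress induced by proteasome inhibitor MG132 added 30 min after compound; luciferase reporter driven by HSF1 response element in NIH3T3 cells; actives raise luminescence as potentiators of the MG132 stress response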
# T3 sequence (P38532 whole entry): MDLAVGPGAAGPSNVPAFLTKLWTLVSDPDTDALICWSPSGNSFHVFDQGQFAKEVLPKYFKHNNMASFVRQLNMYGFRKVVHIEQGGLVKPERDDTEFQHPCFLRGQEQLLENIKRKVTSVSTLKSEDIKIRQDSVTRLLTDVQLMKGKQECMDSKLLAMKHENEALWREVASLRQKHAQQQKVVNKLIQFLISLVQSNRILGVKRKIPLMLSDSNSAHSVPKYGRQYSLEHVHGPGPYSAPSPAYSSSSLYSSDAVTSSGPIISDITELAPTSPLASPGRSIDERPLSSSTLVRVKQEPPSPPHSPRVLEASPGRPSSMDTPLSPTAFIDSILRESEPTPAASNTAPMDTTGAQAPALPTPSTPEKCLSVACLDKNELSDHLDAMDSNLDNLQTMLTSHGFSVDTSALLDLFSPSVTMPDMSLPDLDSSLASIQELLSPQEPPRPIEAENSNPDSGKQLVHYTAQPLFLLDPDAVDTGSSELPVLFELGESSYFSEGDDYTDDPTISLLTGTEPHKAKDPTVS
# Coagulation factor XII = target: T4, Coagulation factor XII (Homo sapiens, UniProt P00748); assay type: functional;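 further: activated factor XIIa alpha cleaving a fluorogenic AMC peptide substrate; inhibitor potency from loss of enzyme activity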
# T4 sequence (P00748 whole entry): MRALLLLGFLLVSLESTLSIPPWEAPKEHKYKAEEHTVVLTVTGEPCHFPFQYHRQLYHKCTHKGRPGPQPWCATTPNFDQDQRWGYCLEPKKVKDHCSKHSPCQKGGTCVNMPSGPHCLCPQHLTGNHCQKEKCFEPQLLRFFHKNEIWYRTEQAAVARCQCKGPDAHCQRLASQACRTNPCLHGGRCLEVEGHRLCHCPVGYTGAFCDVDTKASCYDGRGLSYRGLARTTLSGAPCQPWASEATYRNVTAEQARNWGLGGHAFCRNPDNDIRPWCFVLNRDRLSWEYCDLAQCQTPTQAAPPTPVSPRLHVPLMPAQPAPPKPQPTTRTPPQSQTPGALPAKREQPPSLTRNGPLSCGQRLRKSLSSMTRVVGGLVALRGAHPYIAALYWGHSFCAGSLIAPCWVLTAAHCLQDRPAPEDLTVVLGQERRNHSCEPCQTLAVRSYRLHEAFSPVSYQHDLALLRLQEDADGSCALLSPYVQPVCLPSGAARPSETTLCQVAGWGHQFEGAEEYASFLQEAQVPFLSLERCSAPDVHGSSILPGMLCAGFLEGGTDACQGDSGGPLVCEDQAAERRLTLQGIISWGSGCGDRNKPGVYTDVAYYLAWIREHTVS
# [5] = target: T5, Replicative DNA helicase DnaB (Mycobacterium tuberculosis, UniProt P9WMR3); experiment: DnaB intein splicing inhibitors, dose response, biochemical, cell-free fluorescence (AID 449749); assay type: functional
# T5 sequence (P9WMR3 whole entry): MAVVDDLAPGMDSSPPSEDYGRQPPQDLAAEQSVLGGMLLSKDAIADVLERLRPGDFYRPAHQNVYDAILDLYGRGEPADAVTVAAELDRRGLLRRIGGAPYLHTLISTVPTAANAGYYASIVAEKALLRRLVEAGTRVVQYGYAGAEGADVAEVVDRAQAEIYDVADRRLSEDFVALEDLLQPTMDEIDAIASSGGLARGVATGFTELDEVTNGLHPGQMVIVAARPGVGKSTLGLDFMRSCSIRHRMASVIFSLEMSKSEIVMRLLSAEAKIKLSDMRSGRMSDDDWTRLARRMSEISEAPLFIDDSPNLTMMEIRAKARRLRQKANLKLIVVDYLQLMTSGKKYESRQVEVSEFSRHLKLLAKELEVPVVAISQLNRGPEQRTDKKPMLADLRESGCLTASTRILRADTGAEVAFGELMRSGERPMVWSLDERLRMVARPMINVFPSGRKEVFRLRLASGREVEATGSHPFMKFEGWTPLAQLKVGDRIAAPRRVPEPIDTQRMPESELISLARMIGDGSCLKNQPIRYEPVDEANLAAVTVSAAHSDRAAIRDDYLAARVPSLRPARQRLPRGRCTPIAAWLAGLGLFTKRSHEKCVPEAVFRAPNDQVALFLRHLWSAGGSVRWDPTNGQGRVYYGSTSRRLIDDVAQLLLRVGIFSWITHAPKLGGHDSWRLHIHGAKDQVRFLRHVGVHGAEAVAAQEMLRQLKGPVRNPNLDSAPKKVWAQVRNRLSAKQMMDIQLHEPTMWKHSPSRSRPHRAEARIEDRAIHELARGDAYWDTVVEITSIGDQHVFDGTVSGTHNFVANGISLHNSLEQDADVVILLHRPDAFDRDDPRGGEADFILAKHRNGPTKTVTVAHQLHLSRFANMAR
# [6] = cytotoxicity toward NIH3T3 fibroblasts, dose response, counter-screen, cell-based, ATP luminescence, mouse fibroblasts (AID 2010); assay type: functional;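 further: cells exposed to compound for about 90 hours before reading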
# Protein RecA = target: T6, Protein RecA (Mycobacterium tuberculosis, UniProt P9WHJ3); experiment: Fluorescence Cell-Free Homogeneous Dose Retest to Identify Inhibitors of RecA-Intein Splicing Activity. [Related pubchem assays (depositor defined):AID2097, AID2223, AID489010, AID492950]; assay type: functional
# T6 sequence (P9WHJ3 whole entry): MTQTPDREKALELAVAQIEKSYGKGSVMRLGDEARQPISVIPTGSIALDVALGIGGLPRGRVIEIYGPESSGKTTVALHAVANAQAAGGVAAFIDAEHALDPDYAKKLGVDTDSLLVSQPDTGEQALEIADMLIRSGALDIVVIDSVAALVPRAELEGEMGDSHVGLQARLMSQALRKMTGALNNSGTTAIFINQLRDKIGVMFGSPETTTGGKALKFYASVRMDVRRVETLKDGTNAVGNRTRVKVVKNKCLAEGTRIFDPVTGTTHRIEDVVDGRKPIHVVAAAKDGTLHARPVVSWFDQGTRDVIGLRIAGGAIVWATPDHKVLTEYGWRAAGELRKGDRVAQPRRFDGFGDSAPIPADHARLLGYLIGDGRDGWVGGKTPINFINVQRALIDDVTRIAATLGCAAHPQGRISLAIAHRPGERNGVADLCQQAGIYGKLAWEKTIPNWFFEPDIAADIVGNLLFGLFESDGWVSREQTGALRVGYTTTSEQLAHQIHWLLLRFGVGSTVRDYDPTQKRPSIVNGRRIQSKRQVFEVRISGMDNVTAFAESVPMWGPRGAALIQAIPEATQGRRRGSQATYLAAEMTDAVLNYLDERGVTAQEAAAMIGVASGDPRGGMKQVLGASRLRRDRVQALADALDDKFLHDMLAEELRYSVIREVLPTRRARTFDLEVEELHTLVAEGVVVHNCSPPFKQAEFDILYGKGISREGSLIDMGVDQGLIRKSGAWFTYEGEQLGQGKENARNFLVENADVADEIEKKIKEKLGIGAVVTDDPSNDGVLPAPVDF
# [7] = inhibitors of intracellular T. cruzi replication, confirmation, NIH3T3 host cells, beta-gal luminescence (AID 2044); assay type: functional, cell-based;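 further: intracellular parasites grown in NIH/3T3 mouse fibroblasts as host cells; luminescent beta-galactosidase reporter signal from transgenic T. cruzi replicating inside host cells; inhibitors lower the luminescence signal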
# [8] = Luminescence Cell-Based Dose Retest to Confirm Inhibitors of Cancer Stem Cells. [Related pubchem assays (depositor defined):AID2717, AID2721]; assay type: functional; details: Homo sapiens
# INS1 = experiment: beta cell apoptosis inhibitors, cytokine rescue, dose response, luminescence, retest (AID 449756); assay type: functional, cell-based; details: Rattus norvegicus;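 further: cell death triggered by IL-1 beta plus TNF-alpha plus IFN-gamma mixture; protective hits raise ATP signal compared with cytokine alone wells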
# [9] = intracellular Trypanosoma cruzi inhibitors in host cells – cell-based, plate reader, cherry-pick samples, set 3, dose response (AID 651818); assay type: functional;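 further: compounds incubated with infected cells for about four days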
# [10] = target: DNA dC->dU-editing enzyme APOBEC-3G (Homo sapiens, UniProt Q9HC16); experiment: Dose Response confirmation of small molecule APOBEC3G DNA Deaminase Inhibitors via a fluorescence-based single-stranded DNA deaminase assay. [Related pubchem assays (depositor defined):AID493012, AID493028]; assay type: functional
# DNA dC->dU-editing enzyme APOBEC-3G, sequence (Q9HC16 whole entry): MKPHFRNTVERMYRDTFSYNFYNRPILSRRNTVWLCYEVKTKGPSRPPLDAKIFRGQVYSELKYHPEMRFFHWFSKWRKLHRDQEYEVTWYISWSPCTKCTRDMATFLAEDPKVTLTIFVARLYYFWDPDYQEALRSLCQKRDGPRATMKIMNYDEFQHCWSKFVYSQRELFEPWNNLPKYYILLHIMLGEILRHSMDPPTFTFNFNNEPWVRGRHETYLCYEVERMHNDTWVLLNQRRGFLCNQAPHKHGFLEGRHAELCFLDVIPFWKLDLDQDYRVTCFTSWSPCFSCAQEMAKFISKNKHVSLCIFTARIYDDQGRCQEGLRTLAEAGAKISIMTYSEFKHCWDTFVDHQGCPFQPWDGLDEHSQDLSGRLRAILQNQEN
smiles,measurement,setting,value
COc1ccc(N(C(=O)c2snc(C(N)=O)c2N)C(C(=O)NC2CCCCC2)c2ccc(C)o2)cc1 (stereo unspecified),IC50,[1],> 20 µM (inactive)
CCOC(=O)c1c(S(=O)(=O)N2CCCC2)c(C)n(C)c1C,EC50,cells [2],> 350 µM (not active)
same,EC50,cells [3],> 350 µM (not active)
COc1ccc(N(CN2C(=O)C3C4C=CC(C4)C3C2=O)C(=O)c2ccco2)cc1 (stereo unspecified),IC50,Estrogen receptor,> 50 µM (not active)
O=S1(=O)c2cccc3cccc(c23)N1Cc1nnc(-c2ccccc2Br)o1,EC50,[4],34.6 µM (active)
CC(C)CC(=O)Nc1ccc(C(=O)COc2ccc(-c3nnco3)cc2)cc1,IC50,Estrogen receptor,22.3 µM (active)
COC(=O)c1ccc(CSc2nc3c(cnn3-c3ccc(C)c(C)c3)c(=O)[nH]2)o1,IC50,Estrogen receptor,38.5 µM (not active)
CCN(Cc1ccccc1)C(=O)C1CCN(C/C(C)=C/c2ccccc2)CC1,EC50,[4],> 260 µM (inactive)
CCOC(=S)SCC(=O)Nc1nc(C)c(C)s1,EC50,[4],7.81 µM (active)
Cc1ccc(NC2CCCN(C(=O)C3CCCCC3)C2)cc1C (stereo unspecified),EC50,cells [2],> 350 µM (not active)
same,EC50,cells [3],> 350 µM (not active)
Cc1ccc(C(=O)NCCN2CCNC2=O)cc1,IC50,Coagulation factor XII,> 50 µM (inactive)
O=C(C1CCC(CNS(=O)(=O)c2cccc3nsnc23)CC1)N1CCN(c2ccccn2)CC1 (stereo unspecified),EC50,[4],> 260 µM (inactive)
CCCCCc1cc(=O)oc2c(C(CCN3CCCC(C)C3)c3ccc(OC)cc3)c(OC)cc(OC)c12 (stereo unspecified),IC50,[1],> 20 µM (inactive)
same,AC50,[5],4.78 µM (active)
same,EC50,[6],7.56 µM (active)
same,EC50,Protein RecA,12 µM (active)
same,EC50,[7],1.6 µM (active)
same,AC50,[8],3.25 µM (active)
same,AC50,INS1,7.46 µM (active)
CCN(CC)CCCNC(=O)C1c2ccccc2C(=O)N(C)C1c1ccc(OC)cc1 (stereo unspecified),EC50,cells [2],> 350 µM (not active)
same,EC50,cells [3],> 350 µM (not active)
COc1ccccc1CNC(=O)c1csc(Cc2ccc(Cl)cc2)n1,EC50,[4],> 260 µM (inactive)
CCN1C(=O)c2[nH]nc(C(=O)OC)c2C1=O,IC50,Coagulation factor XII,> 50 µM (inactive)
COc1ccc(NC(=O)CSc2nc3c(sc4ccccc43)c(=O)n2CCCN2CCCC2)cc1,IC50,[1],> 20 µM (inactive)
COc1ccc(Cc2nc3ccc(S(=O)(=O)N4CCOCC4)cc3[nH]2)cc1,IC50,Estrogen receptor,> 50 µM (not active)
CCC(CC)COC(=O)C1=C(C)NC(=O)NC1c1cc(OC)ccc1OC (stereo unspecified),EC50,[4],> 260 µM (inactive)
Cc1cc(C)n(C(=O)CNc2cccc(Cl)c2C)n1,IC50,Coagulation factor XII,> 50 µM (inactive)
C[C@@H]1CN([C@@H](C)CO)C(=O)c2cccc(NS(=O)(=O)c3cccs3)c2O[C@H]1CN(C)Cc1ccc(C(=O)Nc2ccccc2N)cc1,AC50,[9],5.68 µM (active)
C[C@H](CO)N1C[C@H](C)[C@H](CN(C)S(=O)(=O)c2ccc(Cl)cc2)Oc2c(NC(=O)CCCCCC(=O)Nc3ccccc3N)cccc2C1=O,AC50,[9],1.95 µM (active)
C[C@@H]1CCCCO[C@@H](CN(C)S(=O)(=O)c2cccs2)[C@@H](C)CN([C@H](C)CO)C(=O)c2cc(NC(=O)Nc3ccc(C(F)(F)F)cc3)ccc2O1,AC50,[9],4.19 µM (active)
CN(C)CCCOc1ccc(/C=N/NC(=O)CCCCCCC(=O)Nc2ccccc2O)cc1,AC50,[9],1.29 µM (active)
C[C@@H]1CN([C@H](C)CO)C(=O)Cc2cc(NC(=O)CCCCCC(=O)Nc3ccccc3N)ccc2O[C@@H]1CN(C)Cc1ccc(Cl)c(Cl)c1,AC50,[9],4.01 µM (active)
O=C(CC1Sc2ncnn2C1=O)Nc1ccc(Br)cc1 (stereo unspecified),IC50,[10],55.8 µM (active)
CC/N=C1\SC(CC(=O)NC(C)C)C(=O)N1CC (stereo unspecified),EC50,cells [2],> 350 µM (not active)
same,EC50,cells [3],> 350 µM (not active)
